Results as given in the supplement of paper PMC10307832.

Compound: CC(C)(C)c1cc(NC(=O)Nc2ccc(-c3cn4c(n3)sc3cc(OCCN5CCOCC5)ccc34)cc2)no1 [Quizartinib] + Nc1ncn([C@H]2C[C@H](O)[C@@H](CO)O2)c(=O)n1 [Decitabine] (partner 2 µM)
Assay: relative viability (nuclei count vs DMSO), 5 days (fraction); higher = more cells survive
Details: first compound 0.001 µM
In short: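 Lung cancer cell lines, seeded in 1536-well plates, were treated the following day by pin tool with a single drug or with five library-drug doses (not always all listed) in √10 steps on top of a fixed anchor-drug dose. Cells were fixed and nuclei stained in one step after 5 days, and nuclei were counted. Relative viability is the nuclei count for treated wells divided by that for vehicle wells, reported as medians of duplicate plates.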

| Cell Line | relative viability |
| --- | --- |
| EPLC-272H | 0.301 |
| NCI-H650 | 0.319 |
| RERF-LC-KJ | 0.628 |
| HCC-827 | 0.291 |
| NCI-H2087 | 0.257 |
| SK-MES-1 | 0.414 |
| NCI-H1651 | 0.626 |
| NCI-H1355 | 0.346 |
| NCI-H1792 | 0.459 |
| NCI-H647 | 0.32 |
| LCLC-97TM1 | 0.225 |
| LXF-289 | 0.347 |
| LU99A | 0.923 |
| NCI-H2023 | 0.22 |
| NCI-H1437 | 0.402 |
| NCI-H1395 | 0.718 |
| NCI-H2009 | 0.408 |
| HCC-366 | 0.313 |
| NCI-H1915 | 0.23 |
| NCI-H2347 | 0.578 |
| NCI-H1944 | 0.38 |
| NCI-H2170 | 0.424 |
| SW 900 | 0.42 |
| NCI-H358 | 0.194 |
| LK-2 | 0.263 |
| A549 | 0.193 |
| NCI-H2342 | 0.749 |
| NCI-H1793 | 0.543 |
| NCI-H522 | 0.684 |

Same assay, conditions: first compound 0.003162 µM

| Cell Line | relative viability |
| --- | --- |
| EKVX | 0.282 |
| EPLC-272H | 0.417 |
| NCI-H520 | 0.449 |
| NCI-H650 | 0.286 |
| RERF-LC-KJ | 0.73 |
| HCC-827 | 0.358 |
| NCI-H2087 | 0.238 |
| SK-MES-1 | 0.325 |
| NCI-H1651 | 0.642 |
| UMC-11 | 0.708 |
| NCI-H1355 | 0.349 |
| H3255 | 0.576 |
| NCI-H1792 | 0.502 |
| NCI-H647 | 0.369 |
| LCLC-97TM1 | 0.253 |
| LXF-289 | 0.321 |
| LU99A | 0.918 |

| Cell Line | relative viability |
| --- | --- |
| NCI-H2023 | 0.198 |
| NCI-H1437 | 0.54 |
| NCI-H1395 | 0.74 |
| NCI-H2009 | 0.295 |
| HCC-366 | 0.334 |
| NCI-H1915 | 0.252 |
| NCI-H2347 | 0.586 |
| ABC-1 | 1 |
| NCI-H1944 | 0.389 |
| NCI-H2170 | 0.466 |
| SW 900 | 0.392 |
| NCI-H358 | 0.209 |
| LK-2 | 0.215 |
| A549 | 0.249 |
| NCI-H2342 | 0.763 |
| NCI-H1793 | 0.404 |
| NCI-H522 | 0.7 |

Same assay, conditions: first compound 0.01 µM

| Cell Line | relative viability |
| --- | --- |
| EKVX | 0.361 |
| EPLC-272H | 0.375 |
| NCI-H520 | 0.501 |
| NCI-H650 | 0.342 |
| RERF-LC-KJ | 0.694 |
| NCI-H2087 | 0.332 |
| SK-MES-1 | 0.446 |
| NCI-H1651 | 0.667 |
| UMC-11 | 0.638 |
| NCI-H1355 | 0.338 |
| H3255 | 0.674 |
| NCI-H1792 | 0.598 |
| NCI-H647 | 0.437 |
| LCLC-97TM1 | 0.237 |
| LXF-289 | 0.427 |
| LU99A | 1.02 |
| NCI-H2023 | 0.266 |

| Cell Line | relative viability |
| --- | --- |
| NCI-H1437 | 0.567 |
| NCI-H1395 | 0.728 |
| NCI-H2009 | 0.396 |
| HCC-366 | 0.352 |
| NCI-H1915 | 0.279 |
| NCI-H2347 | 0.65 |
| ABC-1 | 1.16 |
| NCI-H1944 | 0.499 |
| NCI-H2170 | 0.468 |
| SW 900 | 0.422 |
| NCI-H358 | 0.232 |
| LK-2 | 0.363 |
| A549 | 0.161 |
| NCI-H2342 | 0.678 |
| NCI-H1793 | 0.534 |
| NCI-H522 | 0.67 |

Same assay, conditions: first compound 0.03162 µM

| Cell Line | relative viability |
| --- | --- |
| EKVX | 0.369 |
| EPLC-272H | 0.376 |
| NCI-H520 | 0.542 |
| NCI-H650 | 0.365 |
| RERF-LC-KJ | 0.429 |
| HCC-827 | 0.313 |
| NCI-H2087 | 0.249 |
| NCI-H1651 | 0.612 |
| UMC-11 | 0.485 |
| NCI-H1355 | 0.331 |
| H3255 | 0.601 |
| NCI-H1792 | 0.449 |
| NCI-H647 | 0.405 |
| LCLC-97TM1 | 0.218 |
| LXF-289 | 0.432 |
| LU99A | 0.895 |

| Cell Line | relative viability |
| --- | --- |
| NCI-H2023 | 0.157 |
| NCI-H1437 | 0.536 |
| NCI-H1395 | 0.718 |
| NCI-H2009 | 0.373 |
| HCC-366 | 0.331 |
| NCI-H1915 | 0.263 |
| NCI-H2347 | 0.619 |
| ABC-1 | 1.29 |
| NCI-H1944 | 0.419 |
| NCI-H2170 | 0.578 |
| SW 900 | 0.372 |
| LK-2 | 0.348 |
| A549 | 0.27 |
| NCI-H2342 | 0.729 |
| NCI-H1793 | 0.534 |
| NCI-H522 | 0.603 |

Same assay, conditions: first compound 0.1 µM

| Cell Line | relative viability |
| --- | --- |
| EKVX | 0.353 |
| EPLC-272H | 0.382 |
| NCI-H520 | 0.462 |
| NCI-H650 | 0.384 |
| RERF-LC-KJ | 0.628 |
| HCC-827 | 0.334 |
| NCI-H2087 | 0.287 |
| SK-MES-1 | 0.322 |
| NCI-H1651 | 0.626 |
| UMC-11 | 0.691 |
| NCI-H1355 | 0.36 |
| H3255 | 0.738 |
| NCI-H1792 | 0.577 |
| NCI-H647 | 0.549 |
| LCLC-97TM1 | 0.21 |
| LXF-289 | 0.42 |
| LU99A | 0.625 |
| NCI-H2023 | 0.214 |
| NCI-H1437 | 0.499 |
| NCI-H1395 | 0.774 |
| NCI-H2009 | 0.443 |
| HCC-366 | 0.314 |
| NCI-H1915 | 0.267 |
| NCI-H2347 | 0.59 |
| ABC-1 | 1.16 |
| NCI-H1944 | 0.399 |
| NCI-H2170 | 0.44 |
| SW 900 | 0.336 |
